# System: yeast genes (level of expressed mRNA)
# Assay: DNA chip analysis of expressed mRNA of yeast genes after 2 h culture with a toxic chemical substance
# Assay type: cell-based, Saccharomyces cerevisiae S288C
# Details: for The level of expressed mRNA in the presence of chemical substance/ (ratio to absence of chemical substance): stress protein genes, DNA chip
# How it was run: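 S. cerevisiae S288C grown at 25° C in YPD; toxicant added at log phase at growth-inhibitory, non-lethal levels for 2 h, untreated cells as control. Poly(A) mRNA reverse-transcribed with Cy3/Cy5-dUTP, hybridized to whole-genome chip at 65° C >12 h; value is fluorescence ratio versus untreated.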
compound,measurement,setting,value
"C[S+](C)[O-] [(15), dimethylsulfoxide]","The level of expressed mRNA in the presence of chemical substance/ in its absence, gene YDL078C","yeast gene YDL078C, ratio of DNA chip fluorescence intensity to that without chemical substance",0.5
same,"The level of expressed mRNA in the presence of chemical substance/ (in its absence), gene YDL215C","yeast gene YDL215C, ratio of DNA chip fluorescence intensity to that without chemical substance",1.1
same,The level of expressed mRNA in the presence of chemical substance/The level of expressed mRNA in the absence of chemical substance,yeast gene YDL238C,1.3
same,The level of expressed mRNA in the presence of chemical substance/The level of expressed mRNA in the absence of chemical substance,yeast gene YDR055W,5.7
same,"The level of expressed mRNA in the presence of chemical substance/ (in its absence), gene YDR073W","yeast gene YDR073W, ratio of DNA chip fluorescence intensity to that without chemical substance",0.8
same,"The level of expressed mRNA in the presence of chemical substance/ in its absence, gene YDR079W","yeast gene YDR079W, energy system protein genes, 2 h culture with the chemical, ratio to control without chemical",0.6
same,"The level of expressed mRNA in the presence of chemical substance/ (ratio to absence), gene YDR079W","yeast gene YDR079W, mitochondria-located protein genes, 2 h culture with chemical",0.6
same,The level of expressed mRNA in the presence of chemical substance/The level of expressed mRNA in the absence of chemical substance,yeast gene YDR084C,3.9
same,The level of expressed mRNA in the presence of chemical substance/The level of expressed mRNA in the absence of chemical substance,yeast gene YDR085C,3.1
same,The level of expressed mRNA in the presence of chemical substance/The level of expressed mRNA in the absence of chemical substance,yeast gene YDR104C,1.4
same,The level of expressed mRNA in the presence of chemical substance/The level of expressed mRNA in the absence of chemical substance,yeast gene YDR115W,0.8
same,The level of expressed mRNA in the presence of chemical substance/The level of expressed mRNA in the absence of chemical substance,yeast gene YDR259C,2.9
same,"The level of expressed mRNA in the presence of chemical substance/ (in its absence), gene YDR297W","yeast gene YDR297W, ratio of DNA chip fluorescence intensity to that without chemical substance",1.4
same,The level of expressed mRNA in the presence of chemical substance/The level of expressed mRNA in the absence of chemical substance,yeast gene YDR315C,1.5
same,The level of expressed mRNA in the presence of chemical substance/The level of expressed mRNA in the absence of chemical substance,yeast gene YDR358W,0.9
same,"The level of expressed mRNA in the presence of chemical substance/ (ratio to absence), gene YDR377W","yeast gene YDR377W, mitochondria-located protein genes, 2 h culture with chemical",0.6
same,"The level of expressed mRNA in the presence of chemical substance/ (in its absence), gene YDR387C","yeast gene YDR387C, ratio of DNA chip fluorescence intensity to that without chemical substance",1.4
same,The level of expressed mRNA in the presence of chemical substance/The level of expressed mRNA in the absence of chemical substance,yeast gene YDR388W,2.6
same,The level of expressed mRNA in the presence of chemical substance/The level of expressed mRNA in the absence of chemical substance,yeast gene YDR481C,3.5
same,The level of expressed mRNA in the presence of chemical substance/The level of expressed mRNA in the absence of chemical substance,yeast gene YDR510W,2.2
same,The level of expressed mRNA in the presence of chemical substance/ (ratio to absence of chemical substance),yeast gene YEL039C,0.4
same,The level of expressed mRNA in the presence of chemical substance/The level of expressed mRNA in the absence of chemical substance,yeast gene YEL066W,1.0
same,"The level of expressed mRNA in the presence of chemical substance/ (in its absence), gene YER015W","yeast gene YER015W, ratio of DNA chip fluorescence intensity to that without chemical substance",0.8
same,The level of expressed mRNA in the presence of chemical substance/The level of expressed mRNA in the absence of chemical substance,yeast gene YER039C,1.2
same,The level of expressed mRNA in the presence of chemical substance/ (ratio to absence of chemical substance),yeast gene YER057C,1.7
same,The level of expressed mRNA in the presence of chemical substance/The level of expressed mRNA in the absence of chemical substance,yeast gene YER107C,0.7
same,The level of expressed mRNA in the presence of chemical substance/The level of expressed mRNA in the absence of chemical substance,yeast gene YER130C,1.1
same,The level of expressed mRNA in the presence of chemical substance/The level of expressed mRNA in the absence of chemical substance,yeast gene YFL028C,0.8
same,The level of expressed mRNA in the presence of chemical substance/The level of expressed mRNA in the absence of chemical substance,yeast gene YFL043C,1.1
same,"The level of expressed mRNA in the presence of chemical substance/ (in its absence), gene YGL035C","yeast gene YGL035C, ratio of DNA chip fluorescence intensity to that without chemical substance",1.0
same,"The level of expressed mRNA in the presence of chemical substance/ (in its absence), gene YGL115W","yeast gene YGL115W, ratio of DNA chip fluorescence intensity to that without chemical substance",0.7
same,The level of expressed mRNA in the presence of chemical substance/ (ratio to absence of chemical substance),yeast gene YGL115W,0.7
same,The level of expressed mRNA in the presence of chemical substance/The level of expressed mRNA in the absence of chemical substance,yeast gene YGL158W,2.3
same,"The level of expressed mRNA in the presence of chemical substance/ (ratio to absence), gene YGL187C","yeast gene YGL187C, mitochondria-located protein genes, 2 h culture with chemical",0.3
same,"The level of expressed mRNA in the presence of chemical substance/ (in its absence), gene YGL205W","yeast gene YGL205W, ratio of DNA chip fluorescence intensity to that without chemical substance",2.0
same,The level of expressed mRNA in the presence of chemical substance/The level of expressed mRNA in the absence of chemical substance,yeast gene YGL229C,0.2
same,"The level of expressed mRNA in the presence of chemical substance/ in its absence, gene YGR062C","yeast gene YGR062C, energy system protein genes, 2 h culture with the chemical, ratio to control without chemical",0.5
same,"The level of expressed mRNA in the presence of chemical substance/ (ratio to absence), gene YGR062C","yeast gene YGR062C, mitochondria-located protein genes, 2 h culture with chemical",0.5
same,"The level of expressed mRNA in the presence of chemical substance/ (in its absence), gene YGR096W","yeast gene YGR096W, ratio of DNA chip fluorescence intensity to that without chemical substance",0.9
same,The level of expressed mRNA in the presence of chemical substance/The level of expressed mRNA in the absence of chemical substance,yeast gene YGR136W,2.6
same,The level of expressed mRNA in the presence of chemical substance/The level of expressed mRNA in the absence of chemical substance,yeast gene YGR189C,9.3
same,The level of expressed mRNA in the presence of chemical substance/The level of expressed mRNA in the absence of chemical substance,yeast gene YGR213C,6.5
same,The level of expressed mRNA in the presence of chemical substance/The level of expressed mRNA in the absence of chemical substance,yeast gene YGR257C,1.3
same,"The level of expressed mRNA in the presence of chemical substance/ (in its absence), gene YGR287C","yeast gene YGR287C, ratio of DNA chip fluorescence intensity to that without chemical substance",2.3
same,"The level of expressed mRNA in the presence of chemical substance/ (in its absence), gene YGR288W","yeast gene YGR288W, ratio of DNA chip fluorescence intensity to that without chemical substance",0.8
same,The level of expressed mRNA in the presence of chemical substance/ (ratio to absence of chemical substance),yeast gene YHL028W,0.6
same,The level of expressed mRNA in the presence of chemical substance/ (ratio to absence of chemical substance),yeast gene YHL046C,1.0
same,The level of expressed mRNA in the presence of chemical substance/The level of expressed mRNA in the absence of chemical substance,yeast gene YHR004C,1.2
same,The level of expressed mRNA in the presence of chemical substance/The level of expressed mRNA in the absence of chemical substance,yeast gene YHR071W,3.0
same,The level of expressed mRNA in the presence of chemical substance/The level of expressed mRNA in the absence of chemical substance,yeast gene YHR139C,1.9
same,The level of expressed mRNA in the presence of chemical substance/The level of expressed mRNA in the absence of chemical substance,yeast gene YHR142W,4.8
same,"The level of expressed mRNA in the presence of chemical substance/ (in its absence), gene YHR210C","yeast gene YHR210C, ratio of DNA chip fluorescence intensity to that without chemical substance",0.5
same,"The level of expressed mRNA in the presence of chemical substance/ (in its absence), gene YIL006W","yeast gene YIL006W, ratio of DNA chip fluorescence intensity to that without chemical substance",1.5
same,The level of expressed mRNA in the presence of chemical substance/ (ratio to absence of chemical substance),yeast gene YIL011W,0.9
same,The level of expressed mRNA in the presence of chemical substance/The level of expressed mRNA in the absence of chemical substance,yeast gene YIL123W,4.8
same,The level of expressed mRNA in the presence of chemical substance/The level of expressed mRNA in the absence of chemical substance,yeast gene YIL140W,3.3
same,"The level of expressed mRNA in the presence of chemical substance/ (in its absence), gene YJL070C","yeast gene YJL070C, ratio of DNA chip fluorescence intensity to that without chemical substance",3.5

# From US20050112573A1, “Method of detecting toxic substance” (priority 2001, published 2005)
